From patent US20080138284A1, “Novel Peptides That Promote Lipid Efflux” (Lipid Sciences, Inc., priority 2006, published 2008)

Tests used:
[1] = tested on: HeLa cells stably transfected with human ABCA1 cDNA (ABCA1 cells); conditions: as previously described (Hamon et al.; Remaley et al.); cited from earlier work
[2] = tested on: HeLa cells transfected with only a hygromycin-resistant control plasmid (control cells); conditions: as previously described (Hamon et al.; Remaley et al.); cited from earlier work
[3] = tested on: HeLa cells transfected with only a hygromycin-resistant control plasmid (control cells); assay: Cholesterol and phospholipid efflux from control HeLa cells (incl. time course); type: cell-based, human; conditions: 30 hour efflux period
Method: (§1) HeLa cells stably transfected with human ABCA1 cDNA (ABCA1 cells) and HeLa cells transfected with only a hygromycin-resistant control plasmid (control cells) are produced and grown in α-modified Eagle's medium (aMEM) plus 10% fetal calf serum, as described by Remaley et al. (Biochem. Biophys. Res. Commun. 280:818-823, 2001). Cholesterol and phospholipid efflux is performed for 18 hours on noncholesterol-loaded cells radiolabeled with either cholesterol or choline (Remaley et al., Arterioscler. Thromb. Vasc. Biol. 17:1813-1821, 1997). Percentage efflux is calculated after subtracting the radioactive counts in the blank media (aMEM plus 1 mg/ml of BSA), and expressed as the percent of total radioactive counts removed from the cells during the efflux period.
(§2) ABCA1 cells are used to assess the ability of apoA-I and synthetic peptides to efflux lipid from cells. […] The peptides of the present invention efflux approximately 2- to 4-fold more cholesterol and phospholipid from ABCA1 cells than from control cells. Both the peptides of the present invention and apoA-I began to show saturation for lipid efflux at approximately the same protein concentration of 10 μg/ml.
Cholesterol efflux from ABCA1 cells to apoA-I is first detectable after 2 hours and increases throughout the 30 hour efflux period. […] Overall, the kinetics for cholesterol efflux to peptides of the present invention from ABCA1 cells is similar to that of apoA-I, except that cholesterol efflux is first detectable after 30 minutes.

[4] = tested on: HeLa cells stably transfected with human ABCA1 cDNA (ABCA1 cells); assay: Cholesterol and phospholipid efflux from ABCA1-transfected HeLa cells (incl. time course); type: cell-based
Method: as §1, §2
Cholesterol efflux from ABCA1 cells to apoA-I is first detectable after 2 hours and increases throughout the 30 hour efflux period. […]

CD11b = CD11b expression in stimulated monocytes by flow cytometry; type: cell-based; conditions: human monocytes, 1 μmol/L PMA, 20 μg/ml apoA-1 or peptide
Method: Monocyte Isolation Peripheral whole blood (PWB) is drawn from healthy consenting individuals into syringes containing sodium citrate (final concentration—19.2 mM). Resting human monocytes are isolated from PWB by density centrifugation with Lymphoprep (Axis Shield). Mononuclear cells (MNCs) are collected and monocytes are further separated to purity using the Dynal negative isolation kit (Invitrogen). Monocytes are resuspended in phosphate buffered saline (PBS) and cell number is determined counting cell suspension on an automated hematology analyzer (Sysmex, KX-21N, USA). Purification of HDL and apoA-1 Human plasma apoA-1 is isolated as previously described and the purity determined using total mass spectrometry. Flow Cytometry 100 μL of monocytes are stimulated with either 1 μmol/L phorbol-myristate-acetate (PMA) or 1 μg/ml lipopolysaccharide (LPS) (Sigma, Australia) in the presence or absence of apoA-1 (20 μg/ml), or 20 μg/ml of the test peptides of the present invention. SEQ ID NOs: 72, 80, 89, 354, 355 and 372 are also tested individually. The cells are incubated with the FITC conjugated antibody to either the active epitope of CD11b (eBiosciences, USA, Clone CBRM1/5) or total CD11b (Serotec, USA, Clone ICRF44) for 15 min at 37° C. Cells are then fixed with 4% paraformaldehyde. Samples are controlled for by using the appropriately matched isotype matched negative control (FITC-anti-mouse IgG) (Serotec, USA, Clone W3/25). CD11b expression is measured by flow cytometry using FACS Calibur (Becton Dickinson). Analysis is conducted using the Cell Quest Pro software. Statistical Analysis Values are presented as the mean ±SD or percentage of control ±SD. FACS results are analyzed for statistical significance using one-way ANOVA followed by Bonferroni post-hoc test. Significance is accepted at P<0.05. […] The combined effects of increasing cholesterol efflux and decreasing inflammation indicate that the peptides of the present invention effectively mimic the function of Apo AI and will decrease atherosclerosis.

[5] = tested on: J774 mouse macrophage cells (ABCA1); assay: ABCA1 mediated cholesterol efflux; type: cell-based; conditions: samples minus blank, Apo A-I @ 20 μg/ml
Text: (§3) The methods employed in this study have been described in U.S. Pat. Nos. 7,029,863, 7,060,452, U.S. Patent Application Publication No. 2005/0191715, and in Moya et al., Arteriosclerosis & Thrombosis 1994:14:1056-1065 and Liu et al., J. Biol. Chem., 2003:278(44), 42976-42984. SR-B1 mediated cholesterol efflux is examined in FU5AH rat hepatoma cells and ABCA1 mediated cholesterol efflux is examined in J774 mouse macrophage cells as described in these references.

[6] = tested on: FU5AH rat hepatoma cells (SR-B1); assay: SR-B1 mediated cholesterol efflux; type: cell-based; conditions: samples minus blank; Apo A-I @ 20 μg/ml
Text: as §3

For “apolipoprotein A-I [Apo A-I, reference compound]”, the “efflux of cholesterol and phospholipid to apoA-I after transfection with ABCA1” value [1] is listed as “do so after transfection with ABCA1”, the “efflux of cholesterol and phospholipid to apoA-I from control cells” value [2] is listed as “do not efflux significant amounts” and the “cholesterol efflux to apoA-I from control cells, time course” value [3] is listed as “no significant increase above background”. For the same substance, the “protein concentration at which lipid efflux begins to show saturation” value [4] was roughly 10 µg/mL, the “time after which cholesterol efflux from ABCA1 cells is first detectable” value ([4]; 30 hour efflux period) was 2 h and the “PMA induced CD11b expression” value (CD11b) was “significantly reduce”. For the same substance, the “+ABCA1 Cells (efflux)” value [5] was 20.682 + 0.724, the “−ABCA1 Cells (efflux)” value [5] was 1.713 ± 0.409 and the “ABCA1 Mediated Efflux” value ([5]; equals +ABCA1 minus −ABCA1 cells) was 18.97 % Per 4 h. The “SR-BI Mediated Efflux” value [6] was 0.26 % Per 4 h.
